Experiments:
rat [1] = conditions: Subchronic dermal toxicity, sprague dawley, Topical, dose end: 90 day, group: systemic, systemic / in life observation / clinical signs / desquamation + systemic / in life observation / clinical signs / erythema + systemic / in …
rat [2] = conditions: Multigenerational reproductive toxicity study, sprague dawley, Oral, Gavage/Intubation, dose end: 1 generation
rabbit = conditions: Prenatal developmental toxicity study, new zealand white, Oral, Gavage/Intubation, dose end: 28 GD
rat [3] = conditions: Sub-acute repeat dose toxicity; sprague dawley; Oral; Gavage/Intubation; dose end: 1 week; group: systemic; systemic / in life observation / food consumption / food consumption + systemic / in life observation / water consumption / water …
rat [4] = conditions: Subchronic oral toxicity in rodents, sprague dawley, Gavage/Intubation, dose end: 90 day, group: systemic
rat [5] = conditions: Chronic toxicity, fischer, Oral, Feed, dose end: 103 week, group: systemic
rat [6] = conditions: Multigenerational reproductive toxicity study, sprague dawley, Oral, Feed, dose end: 2 generation
rat [7] = conditions: Subchronic oral toxicity in rodents, fischer, Feed, dose end: 13 week, group: systemic
dog = conditions: Subchronic oral toxicity in nonrodent, beagle, Capsule, dose end: 26 week, group: systemic
mouse [8] = conditions: Subchronic oral toxicity in rodents, b6c3f1, Feed, dose end: 13 week, group: systemic
mouse [9] = conditions: Carcinogenicity, b6c3f1, Oral, Feed, dose end: 2 year, group: systemic
rat [10] = conditions: Prenatal developmental toxicity study, other, Oral, Gavage/Intubation, dose end: 19 GD
rat [11] = conditions: Combined chronic toxicity/carcinogenicity, fischer, Oral, Feed, dose end: 2 year, group: systemic
mouse [12] = conditions: Carcinogenicity; b6c3f1; Oral; Feed; dose end: 103 week; group: systemic; systemic / in life observation / body weight / body weight
rat [13] = conditions: Carcinogenicity; fischer; Oral; Feed; dose end: 103 week; group: systemic; systemic / pathology microscopic / pituitary gland / hyperplasia
[14] = group: parental, systemic / in life observation / clinical signs / fur (altered appearance) + systemic / in life observation / clinical signs / hunched …
[15] = group: reproductive, reproductive / offspring survival early / dead fetuses / dead fetuses
[16] = group: developmental, developmental / developmental malformation / bone / malpositioned + developmental / developmental malformation / bone / supernumerary + …
[17] = systemic / pathology microscopic / stomach / hyperplasia + systemic / in life observation / clinical signs / abnormal respiratory sounds + …
[18] = systemic / pathology microscopic / stomach / hyperplasia + systemic / pathology microscopic / stomach / edema + systemic / pathology …
[19] = systemic / pathology microscopic / skin / subcutaneous mass
[20] = group: offspring, systemic / in life observation / body weight / offspring (pup) weight + systemic / in life observation / body weight / offspring (pup) …
[21] = group: parental, systemic / in life observation / body weight / body weight + systemic / in life observation / body weight / body weight gain
[22] = group: reproductive, reproductive / offspring survival early / litter size / litter size + reproductive / offspring survival early / birth index / live birth …
[23] = systemic / in life observation / body weight / body weight + systemic / in life observation / clinical signs / fur (altered appearance) + …
[24] = systemic / clinical chemistry / cholesterol / cholesterol + systemic / clinical chemistry / glucose / glucose + systemic / hematology / …
[25] = systemic / in life observation / body weight / body weight + systemic / in life observation / body weight / body weight gain + systemic / in…
[26] = systemic / in life observation / body weight / body weight + systemic / in life observation / mortality / mortality + systemic / organ …
[27] = systemic / organ weight / liver / relative to body weight + systemic / organ weight / liver / absolute
[28] = systemic / in life observation / body weight / body weight + systemic / in life observation / body weight / body weight gain
[29] = group: developmental, systemic / in life observation / body weight / fetal weight
[30] = group: maternal, systemic / in life observation / clinical signs / abnormal movements + systemic / in life observation / clinical signs / salivation
[31] = systemic / in life observation / body weight / body weight + systemic / in life observation / food consumption / food consumption + systemic…

SMILES: O=S1CCON=C1c1cc2ccccc2s1 (configuration not stated) [Bethoxazin]
- LEL (rat [1]): 0.1 mg/kg/day
- LOAEL (rat [1]): 0.1 mg/kg/day
- NEL (rat [1]): < 0.1 mg/kg/day
- NOAEL (rat [1]): < 0.1 mg/kg/day
- LEL (rat [2]; [14]): 10 mg/kg/day
- LOAEL (rat [2]; [14]): 70 mg/kg/day
- NEL (rat [2]; [14]): < 10 mg/kg/day
- NOAEL (rat [2]; [14]): 30 mg/kg/day
- LEL (rat [2]; [15]): 70 mg/kg/day
- LOAEL (rat [2]; [15]): > 70 mg/kg/day
- NEL (rat [2]; [15]): 30 mg/kg/day
- NOAEL (rat [2]; [15]): ≥ 70 mg/kg/day
- LOAEL (rabbit; [16]): 30 mg/kg/day
- NEL (rabbit; [16]): 3 mg/kg/day
- LEL (rabbit; group: developmental, developmental / developmental malformation / bone / supernumerary): 10 mg/kg/day
- LOAEL (rabbit; group: maternal, systemic / in life observation / body weight / body weight gain + systemic / in life observation / food consumption / food consumption): 30 mg/kg/day
- LEL (rabbit; group: maternal, systemic / in life observation / body weight / body weight gain + systemic / in life observation / food consumption / food consumption + …): 30 mg/kg/day
- LEL (rat [3]): 50 mg/kg/day
- LOAEL (rat [3]): 50 mg/kg/day
- NEL (rat [3]): < 50 mg/kg/day
- NOAEL (rat [3]): < 50 mg/kg/day
- NEL (rat [4]; [17]): 1.25 mg/kg/day
- NOAEL (rat [4]; [17]): 1.25 mg/kg/day
- LEL (rat [4]; [18]): 5 mg/kg/day
- LOAEL (rat [4]; [18]): 5 mg/kg/day

SMILES: C=C(C)[C@H]1Cc2c(ccc3c2O[C@@H]2COc4cc(OC)c(OC)cc4[C@@H]2C3=O)O1 [Rotenone]
- LOAEL (rat [5]; systemic / pathology microscopic / pituitary gland / hyperplasia + systemic / pathology microscopic / parathyroid gland / hyperplasia): 3.4 mg/kg/day
- NOAEL (rat [5]; systemic / pathology microscopic / pituitary gland / hyperplasia + systemic / pathology microscopic / parathyroid gland / hyperplasia + …): 1.7 mg/kg/day
- LEL (rat [5]; [19]): 1.8 mg/kg/day
- NEL (rat [5]; [19]): < 1.8 mg/kg/day
- LEL (rat [6]; [20]): 3.1 mg/kg/day
- LOAEL (rat [6]; [20]): 3.1 mg/kg/day
- NEL (rat [6]; [20]): 0.6 mg/kg/day
- NOAEL (rat [6]; [20]): 0.6 mg/kg/day
- LEL (rat [6]; [21]): 3 mg/kg/day
- LOAEL (rat [6]; [21]): 3 mg/kg/day
- NEL (rat [6]; [21]): 0.6 mg/kg/day
- NOAEL (rat [6]; [21]): 0.6 mg/kg/day
- LEL (rat [6]; [22]): 7 mg/kg/day
- LOAEL (rat [6]; [22]): > 7 mg/kg/day
- NEL (rat [6]; [22]): 3.1 mg/kg/day
- NOAEL (rat [6]; [22]): ≥ 7 mg/kg/day
- LOAEL (rat [7]; [23]): > 60 mg/kg/day
- NEL (rat [7]; [23]): 3.75 mg/kg/day
- NOAEL (rat [7]; [23]): ≥ 60 mg/kg/day
- LEL (rat [7]; systemic / in life observation / body weight / body weight + systemic / pathology microscopic / bone marrow / atrophy + systemic / pathology…): 7.5 mg/kg/day
- LOAEL (dog; [24]): 10 mg/kg/day
- NEL (dog; [24]): 0.4 mg/kg/day
- NOAEL (dog; [24]): 2 mg/kg/day
- LEL (dog; [25]): 2 mg/kg/day
- LOAEL (mouse [8]; [26]): > 7500 mg/kg/day
- NOAEL (mouse [8]; [26]): ≥ 7500 mg/kg/day
- LEL (mouse [8]; [27]): 90 mg/kg/day
- NEL (mouse [8]; [27]): < 90 mg/kg/day
- LOAEL (mouse [9]; [28]): 111 mg/kg/day
- NOAEL (mouse [9]; [28]): < 111 mg/kg/day
- LEL (mouse [9]; [25]): 111 mg/kg/day
- NEL (mouse [9]; [25]): < 111 mg/kg/day
- LEL (rat [10]; [29]): 6 mg/kg/day
- LOAEL (rat [10]; [29]): 6 mg/kg/day
- NEL (rat [10]; [29]): 3 mg/kg/day
- NOAEL (rat [10]; [29]): 3 mg/kg/day
- LEL (rat [10]; [30]): 0.75 mg/kg/day
- LOAEL (rat [10]; [30]): 0.75 mg/kg/day
- NEL (rat [10]; [30]): < 0.75 mg/kg/day
- NOAEL (rat [10]; [30]): < 0.75 mg/kg/day
- LOAEL (rat [11]; systemic / in life observation / body weight / body weight + systemic / in life observation / food consumption / food consumption): 1.88 mg/kg/day
- LEL (rat [11]; [31]): 1.88 mg/kg/day
- NEL (rat [11]; [31]): 0.375 mg/kg/day
- NOAEL (rat [11]; [31]): 0.375 mg/kg/day
- LEL (mouse [12]): 111 mg/kg/day
- LOAEL (mouse [12]): > 242 mg/kg/day
- NEL (mouse [12]): < 111 mg/kg/day
- NOAEL (mouse [12]): ≥ 242 mg/kg/day
- LEL (rat [13]): 3.4 mg/kg/day
- LOAEL (rat [13]): > 3.4 mg/kg/day
- NEL (rat [13]): 1.7 mg/kg/day
- NOAEL (rat [13]): ≥ 3.4 mg/kg/day

Reference: EPA's ToxRefDB 2
